Measured values published in US11078193B2 (priority 2014, dated 2021).

How the values were obtained:
Format in all cases: cell-based
HBV [1] = test: anti HBV activity, HepG2.117 inducibly HBV producing cell line (Tet-off), intracellular HBV DNA by realtime PCR; conditions: Hepatitis B virus, 72 h, HepG2.117 cells, 3 days of treatment
HBV [2] = test: anti-HBV activity, HepG2.2.15 stable transfected cell line, HBV DNA from secreted virions by realtime PCR; conditions: Hepatitis B virus, 144 h, HepG2.2.15 cells, 6 days of treatment
[3] = Cytotoxicity, HepG2 cells, Resazurin assay; conditions: human

Compound	EC50 (HBV [1]) [nM]	EC50 (HBV [2]) [nM]	CC50 at 4 days [3] [nM]
Cn1cc(S(=O)(=O)NC2(C(F)(F)F)CC2)c(Cl)c1C(=O)Nc1ccnc(Cl)c1 [Compound 45, 3-chloro-N-(2-chloro-4-pyridyl)-1-methyl-4-[[1-(trifluoromethyl)cyclopropyl]-sulfamoyl]pyrrole-2-carboxamide]	40	50	> 25000
C[C@@H](NS(=O)(=O)c1cn(C)c(C(=O)Nc2cccc(C#N)n2)c1F)C(F)(F)F [Compound 25, N-(6-cyano-2-pyridyl)-3-fluoro-1-methyl-4-[[(1R)-2,2,2-trifluoro-1-methyl-ethyl]sulfamoyl]pyrrole-2-carboxamide]	> 1000	190	> 25000
Cn1cc(S(=O)(=O)NC2(C)COC2)cc1C(=O)Nc1cc(C(F)(F)F)ccn1 [Compound 4, 1-Methyl-4-[(3-methyloxetan-3-yl)sulfamoyl]-N-[4-(trifluoromethyl)pyridin-2-yl]-1H-pyrrole-2-carboxamide]	2340	> 1000	> 25000
C[C@@H](NS(=O)(=O)c1cn(C)c(C(=O)Nc2ccnc(Cl)c2F)c1F)C(C)(F)F [Compound 125, N-(2-chloro-3-fluoro-4-pyridyl)-4-[[(1R)-2,2-difluoro-1-methyl-propyl]sulfamoyl]-3-fluoro-1-methyl-pyrrole-2-carboxamide]	8	< 100	> 25000
C[C@@H](NS(=O)(=O)c1cn(C)c(C(=O)Nc2cccc(C#N)n2)c1Cl)C(F)(F)F [Compound 22, 3-chloro-N-(6-cyano-2-pyridyl)-1-methyl-[[(1R)-2,2,2-trifluoro-1-methyl-ethyl]sulfamoyl]pyrrole-2-carboxamide]	720	440	> 25000
C[C@@H](NS(=O)(=O)c1cn(C)c(C(=O)Nc2ccnc(C(C)(F)F)c2)c1F)C(F)(F)F [Compound 129, N-[2-(1,1-difluoroethyl)-4-pyridyl]-3-fluoro-1-methyl-4-[[(1R)-2,2,2-trifluoro-1-methyl-ethyl]sulfamoyl]pyrrole-2-carboxamide]	400	810	> 25000
CC[C@H](NS(=O)(=O)c1cn(C)c(C(=O)Nc2ccnc(C#N)c2)c1Cl)C(F)(F)F [Compound 37, 3-chloro-N-(2-cyano-4-pyridyl)-1-methyl-4-[[(1S)-1-(trifluoromethyl)-propyl]sulfamoyl]pyrrole-2-carboxamide]	200	150	> 25000
CC(C)NS(=O)(=O)c1cn(C)c(C(=O)Nc2ccnc(C(F)F)c2)c1F [Compound 82, N-[2-(difluoromethyl)-4-pyridyl]-3-fluoro-4-(isopropylsulfamoyl)-1-methyl-pyrrole-2-carboxamide]	100	70	> 25000
Cc1cc(NC(=O)c2c(Cl)c(S(=O)(=O)N[C@H](C)C(F)(F)F)cn2C)cc(F)n1 [Compound 137, 3-chloro-N-(2-fluoro-6-methyl-4-pyridyl)-1-methyl-4-[[(1R)-2,2,2-trifluoro-1-methyl-ethyl]sulfamoyl]pyrrole-2-carboxamide]	20	< 100	> 25000
C[C@@H](NS(=O)(=O)c1cn(C)c(C(=O)Nc2ccnc(C#N)c2)c1Cl)C(C)(F)F [Compound 96, 3-chloro-N-(2-cyano-4-pyridyl)-4-[[(1R)-2,2-difluoro-1-methyl-propyl]sulfamoyl]-1-methyl-pyrrole-2-carboxamide]	40	40	> 25000
CC[C@@H](NS(=O)(=O)c1cn(C)c(C(=O)Nc2ccnc(C(F)F)c2)c1Cl)C(F)(F)F [Compound 85, 3-chloro-N-[2-(difluoromethyl)-4-pyridyl]-1-methyl-4-[[(1R)-1-(trifluoromethyl)propyl]sulfamoyl]pyrrole-2-carboxamide]	40	20	24000
Cn1cc(S(=O)(=O)NC2(C)CC(F)(F)C2)c(Cl)c1C(=O)Nc1ccnc(F)c1 [Compound 116, 3-chloro-4-[(3,3-difluoro-1-methyl-cyclobutyl)sulfamoyl]-N-(2-fluoro-4-pyridyl)-1-methyl-pyrrole-2-carboxamide]	20	210	> 25000
CC[C@@H](NS(=O)(=O)c1cn(C)c(C(=O)Nc2ccnc(C#N)c2)c1Cl)C(F)(F)F [Compound 38, 3-chloro-N-(2-cyano-4-pyridyl)-1-methyl-4-[[(1R)-1-(trifluoromethyl)propyl]-sulfamoyl]pyrrole-2-carboxamide]	50	40	> 25000
C[C@H](NS(=O)(=O)c1cn(C)c(C(=O)Nc2ccnc(C#N)c2)c1F)C(F)(F)F [Compound 19, N-(2-Cyanopyridin-4-yl)-3-fluoro-1-methyl-4-{[(1S)-2,2,2-trifluoro-1-methylethyl]sulfamoyl}-1H-pyrrole-2-carboxamide]	100	160	> 25000
C[C@@H](NS(=O)(=O)c1cn(C)c(C(=O)Nc2cnc(F)c(Br)c2)c1Cl)C(F)(F)F [Compound 34, N-(5-bromo-6-fluoro-3-pyridyl)-3-chloro-1-methyl-4-[[(1R)-2,2,2-trifluoro-1-methyl-ethyl]sulfamoyl]pyrrole-2-carboxamide]	100	50	> 25000
Cn1cc(S(=O)(=O)NC2(C(F)(F)F)CCC2)c(F)c1C(=O)Nc1ccnc(Br)c1F [Compound 166, N-(2-bromo-3-fluoro-4-pyridyl)-3-fluoro-1-methyl-4-[[1-(trifluoromethyl)cyclobutyl]sulfamoyl]pyrrole-2-carboxamide]	3		> 25000
C[C@H](NS(=O)(=O)c1cn(C)c(C(=O)Nc2ccnc(C(F)(F)F)c2)c1F)C(C)(F)F [Compound 62, 4-[[(1S)-2,2-difluoro-1-methyl-propyl]sulfamoyl]-3-fluoro-1-methyl-N-[2-(trifluoromethyl)-4-pyridyl]pyrrole-2-carboxamide]	190		> 25000
C[C@@H](NS(=O)(=O)c1cn(C)c(C(=O)Nc2ccnc(C(F)(F)F)c2)c1Cl)C(C)(F)F [Compound 150, 3-chloro-4-[[(1R)-2,2-difluoro-1-methyl-propyl]sulfamoyl]-1-methyl-N-[2-(trifluoromethyl)-4-pyridyl]pyrrole-2-carboxamide]	90		> 25000
CC(O)C(C)NS(=O)(=O)c1cn(C)c(C(=O)Nc2ccnc(Cl)c2)c1Cl (racemic) [Compound 90, (+/−)-3-chloro-N-(2-chloro-4-pyridyl)-4-[(2-hydroxy-1-methyl-propyl)sulfamoyl]-1-methyl-pyrrole-2-carboxamide]	450		> 25000
Cn1cc(S(=O)(=O)NC2(C(F)(F)F)CCC2)c(F)c1C(=O)Nc1cc(F)nc(F)c1 [Compound 168, N-(2,6-difluoro-4-pyridyl)-3-fluoro-1-methyl-4-[[1-(trifluoromethyl)cyclobutyl]sulfamoyl]pyrrole-2-carboxamide]	6		> 25000
